According to US20260078130A1, “NAMPT MODULATORS, PREPARATIONS, AND USES THEREOF” (SIRONAX LTD., priority 2022, published 2026):
Read-outs that look alike come from different tables or passages of the source.

Key:
[1] = target: T1, human enzyme NAMPT (full length) (Homo sapiens, UniProt P43490); assay: NMN fluorescence biochemical assay (stimulation of NMN synthesis by NAMPT); details: for EC50: concentration giving half-maximal activation, read-out: Enzymatic EC50; for Enzymatic Emax: fold change of maximal activation compared to DMSO
T1 construct: human enzyme NAMPT (full length)
T1 sequence (P43490 whole entry): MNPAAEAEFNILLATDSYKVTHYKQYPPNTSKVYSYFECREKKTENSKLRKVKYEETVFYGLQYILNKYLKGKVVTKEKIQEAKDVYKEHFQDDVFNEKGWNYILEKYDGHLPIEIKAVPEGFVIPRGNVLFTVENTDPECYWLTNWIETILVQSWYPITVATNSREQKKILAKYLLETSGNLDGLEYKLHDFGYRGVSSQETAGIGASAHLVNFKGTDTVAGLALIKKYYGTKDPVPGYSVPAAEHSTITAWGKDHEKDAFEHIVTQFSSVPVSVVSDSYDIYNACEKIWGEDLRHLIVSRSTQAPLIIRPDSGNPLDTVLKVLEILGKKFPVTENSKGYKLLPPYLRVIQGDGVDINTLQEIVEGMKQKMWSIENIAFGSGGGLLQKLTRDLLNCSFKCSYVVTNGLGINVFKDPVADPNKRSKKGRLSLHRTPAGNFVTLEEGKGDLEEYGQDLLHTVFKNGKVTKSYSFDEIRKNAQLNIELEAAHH
How it was run: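 Full-length human NAMPT (100 nM) was preincubated 15 min at 37 °C with compound in 50 mM Tris-HCl pH 7.5, 10 mM MgCl2, 2 mM DTT, then reacted 1 h at 37 °C with 50 μM NAM, 100 μM PRPP, 4 mM ATP (stated solution concentrations). NMN was derivatised with acetophenone/KOH then formic acid and read at Ex/Em 382/445 nm; EC50 and Emax (fold over DMSO) reported.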

[2] = test system: endogenous NAMPT in U2OS cells; assay: Cellular NAD+ modulation assay (NAD/NADH-Glo, U2OS cells); type: cell-based; details: Homo sapiens; for maximal fold induction: read-out: Cellular Emax
Experimental: Certain compounds described herein were also assayed for their ability to stimulate the endogenous NAMPT in a native cellular environment in a cellular NAD^+ modulation assay. U2OS cells were grown in McCoy's 5A medium with 10% fetal bovine serum, in a humidified incubator with an atmosphere of 95% air and 5% CO2 at 37° C. The assays were initiated by plating 30 μL of U2OS cells in a culture medium with 10% fetal bovine serum, at a density of 3000 cells per well in a Corning® 384-well White/Clear Bottom Polystyrene Microplate. The plates were incubated in 37T incubators for a period of 16 hours. Test compounds with a series of concentrations in DMSO were added to the plates in a volume of 150 nL using Echo Liquid handlers. The plates are then incubated for 24 hours. The medium was removed from the wells, then 10 μL PBS was added to each well. To each well of cells in 10 μL of PBS, 10 μL of base solution with 1% DTAB was added. The plate was briefly mixed on a plate shaker to ensure homogeneity and cell lysis (5 mins). 10p L of 0.4N HCl was added per well. The plate was coved, and all samples were incubated for 15 minutes at 60° C. Then the plate was equilibrated for 10 minutes at room temperature. 10 μL of 0.5M Trizma® base was added to each well of acid-treated cells to neutralize the acid. Finally, 30 μL of NAD/NADH-Glo™ Detection Reagent was added. The plate was gently shaken to mix the samples. The plate was incubated for 40 minutes at room temperature. Luminescence was recorded using a luminometer. The potency measurements for the test compounds were quantified and represented as EC50 (concentration of a compound that gives half-maximal activation) and Emax (fold change of a compound's maximal activation compared to DMSO).

[3] = NMN fluorescence assay, purified human NAMPT 100 nM
[4] = 24 hours incubation, cellular NAD+
[5] = NMN synthesis by purified human NAMPT (100 nM)
[6] = 24 hours incubation with compound

Row | SMILES | EC50 [1, 3] | Enzymatic Emax [1] | EC50 [2, 4] | maximal fold induction [2, 4] | EC50 [1, 5] | EC50 [2, 6] | maximal fold induction [2, 6]
1 | Cn1ncc(Cl)c1CC1c2ccccc2C(=O)N1C[C@@H]1C[C@@H]1c1c[nH]nn1 (relative stereo) [Compound 604, cis 2-((2-(1H-1,2,3-triazol-4-yl)cyclopropyl)methyl)-3-((4-chloro-1-methyl-1H-pyrazol-5-yl)methyl)isoindolin-1-one] | ≥ 5 µM | C (2≥C) | 5 to 50 µM | ≤ 1.2 | – | – | –
2 | CC1c2cc(-c3cnco3)ccc2C(=O)N1Cc1ccc2[nH]c(=O)oc2c1 (single isomer, unassigned) [Compound 162] | – | B (3≥B>2) | – | – | 0.5 to 5 µM | 5 to 50 µM | > 1.5
3 | Cc1ccc2c(c1)C(C)N(Cc1ccc3[nH]c(=O)oc3c1)C2=O (single isomer, unassigned) [Compound 163] | – | A (A>3) | – | – | ≥ 5 µM | 0.5 to 5 µM | > 1.5
4 | C[C@H]1c2cc(C#N)ccc2C(=O)N1Cc1ccc2[nH]c(=O)oc2c1 (single isomer, unassigned) [Compound 186] | – | B (3≥B>2) | – | – | ≥ 5 µM | 0.5 to 5 µM | > 1.5
5 | CC1c2cc(CN3CC4(COC4)C3)ccc2C(=O)N1Cc1ccc2[nH]c(=O)oc2c1 (single isomer, unassigned) [Compound 187] | – | B (3≥B>2) | – | – | 0.5 to 5 µM | 0.5 to 5 µM | > 1.5
6 | COC1CCN(Cc2ccc3c(c2)[C@H](C)N(Cc2ccc4[nH]c(=O)oc4c2)C3=O)C1 (single isomer, unassigned) [Compound 188] | – | B (3≥B>2) | – | – | ≥ 5 µM | 0.5 to 5 µM | > 1.5
7 | CC1c2cc(C3COC3)ccc2C(=O)N1Cc1ccc2[nH]c(=O)oc2c1 (single isomer, unassigned) [Compound 198] | – | B (3≥B>2) | – | – | 0.5 to 5 µM | 0.5 to 5 µM | > 1.5
8 | CC1c2cc(NC3CC3)ccc2C(=O)N1Cc1ccc2[nH]c(=O)oc2c1 (single isomer, unassigned) [Compound 242] | – | A (A>3) | – | – | ≥ 5 µM | 0.5 to 5 µM | > 1.5
9 | Cn1ncc(Cl)c1CC1c2ccccc2C(=O)N1Cc1ccc(OC(F)F)cc1 (centres unmarked) [Compound 528, 3-((4-chloro-1-methyl-1H-pyrazol-5-yl)methyl)-2-(4-(difluoromethoxy)benzyl)isoindolin-1-one] | ≥ 5 µM | C (2≥C) | – | – | – | – | –
10 | COc1ccc(CN2C(=O)c3ccccc3C2Cc2c(Cl)cnn2C)nc1 (centres unmarked) [Compound 529, 3-((4-chloro-1-methyl-1H-pyrazol-5-yl)methyl)-2-((5-methoxypyridin-2-yl)methyl)isoindolin-1-one] | 0.5 to 5 µM | C (2≥C) | – | – | – | – | –
11 | COc1ncc(CN2C(=O)c3ccccc3C2Cc2c(Cl)cnn2C)cc1F (centres unmarked) [Compound 532, 3-((4-chloro-1-methyl-1H-pyrazol-5-yl)methyl)-2-((5-fluoro-6-methoxypyridin-3-yl)methyl)isoindolin-1-one] | ≥ 5 µM | C (2≥C) | – | – | – | – | –
12 | Cn1ncc(Cl)c1CC1c2ccccc2C(=O)N1CC1CC(=O)C1 (centres unmarked) [Compound 556, 3-((4-chloro-1-methyl-1H-pyrazol-5-yl)methyl)-2-((3-oxocyclobutyl)methyl)isoindolin-1-one] | ≥ 5 µM | B (3≥B>2) | – | – | – | – | –
13 | COc1c(F)cc(CN2C(=O)c3ccccc3C2Cc2c(Cl)cnn2C)cc1F (centres unmarked) [Compound 560, 3-((4-chloro-1-methyl-1H-pyrazol-5-yl)methyl)-2-(3,5-difluoro-4-methoxybenzyl)isoindolin-1-one] | ≥ 5 µM | B (3≥B>2) | – | – | – | – | –
14 | Cn1ncc(Cl)c1CC1c2ccccc2C(=O)N1Cc1ccc2ocnc2c1 (centres unmarked) [Compound 561, 2-(benzo[d]oxazol-5-ylmethyl)-3-((4-chloro-1-methyl-1H-pyrazol-5-yl)methyl)isoindolin-1-one] | ≥ 5 µM | C (2≥C) | – | – | – | – | –
15 | Cn1ncc(Cl)c1CC1c2ccccc2C(=O)N1CC1CC2(COC2)C1 (centres unmarked) [Compound 564, 2-((2-oxaspiro[3.3]heptan-6-yl)methyl)-3-((4-chloro-1-methyl-1H-pyrazol-5-yl)methyl)isoindolin-1-one] | ≥ 5 µM | C (2≥C) | – | – | – | – | –
16 | Cn1ncc(Cl)c1CC1c2ccccc2C(=O)N1Cc1ccc(F)cc1 (centres unmarked) [Compound 572, 3-((4-chloro-1-methyl-1H-pyrazol-5-yl)methyl)-2-(4-fluorobenzyl)isoindolin-1-one] | ≥ 5 µM | C (2≥C) | – | – | – | – | –
17 | Cn1ncc(Cl)c1CC1c2ccccc2C(=O)N1Cc1ccc(Br)cc1 (centres unmarked) [Compound 575, 2-(4-bromobenzyl)-3-((4-chloro-1-methyl-1H-pyrazol-5-yl)methyl)isoindolin-1-one] | 0.5 to 5 µM | C (2≥C) | – | – | – | – | –
18 | CC(=O)c1ccc(CN2C(=O)c3ccccc3C2Cc2c(Cl)cnn2C)cc1 (centres unmarked) [Compound 584, 2-(4-acetylbenzyl)-3-((4-chloro-1-methyl-1H-pyrazol-5-yl)methyl)isoindolin-1-one] | 0.5 to 5 µM | B (3≥B>2) | – | – | – | – | –
19 | Cn1ncc(Cl)c1CC1c2ccccc2C(=O)N1Cc1ccc2c(cnn2C)c1 (centres unmarked) [Compound 586, 3-((4-chloro-1-methyl-1H-pyrazol-5-yl)methyl)-2-((1-methyl-1H-indazol-5-yl)methyl)isoindolin-1-one] | ≥ 5 µM | C (2≥C) | – | – | – | – | –
20 | Cn1ncc(Cl)c1CC1c2ccccc2C(=O)N1CC1CC2(C1)OC(=O)NC2=O (centres unmarked) [Compound 587, 2-((1-((4-chloro-1-methyl-1H-pyrazol-5-yl)methyl)-3-oxoisoindolin-2-yl)methyl)-5-oxa-7-azaspiro[3.4]octane-6,8-dione] | ≥ 5 µM | C (2≥C) | – | – | – | – | –
21 | Cn1ncc(Cl)c1CC1c2ccccc2C(=O)N1Cc1ccc2[nH]c(=S)oc2c1 (centres unmarked) [Compound 626, 3-((4-chloro-1-methyl-1H-pyrazol-5-yl)methyl)-2-((2-thioxo-2,3-dihydrobenzo[d]oxazol-6-yl)methyl)isoindolin-1-one] | ≥ 5 µM | – | – | – | – | – | –
22 | Cn1ncc(Cl)c1CC1c2ccccc2C(=O)N1Cc1nn[nH]c1F (centres unmarked) [Compound 630, 3-((4-chloro-1-methyl-1H-pyrazol-5-yl)methyl)-2-((5-fluoro-1H-1,2,3-triazol-4-yl)methyl)isoindolin-1-one] | ≥ 5 µM | C (2≥C) | – | – | – | – | –
23 | Cn1ncc(Cl)c1CC1c2ccccc2C(=O)N1CCc1ccc(=O)[nH]c1 (centres unmarked) [Compound 636, 3-((4-chloro-1-methyl-1H-pyrazol-5-yl)methyl)-2-(2-(6-oxo-1,6-dihydropyridin-3-yl)ethyl)isoindolin-1-one] | ≥ 5 µM | C (2≥C) | – | – | – | – | –
24 | COc1ccc(CN2C(Cc3c(Cl)cnn3C)c3ccccc3S2(=O)=O)cn1 (centres unmarked) [Compound 642, 3-((4-chloro-1-methyl-1H-pyrazol-5-yl)methyl)-2-((6-methoxypyridin-3-yl)methyl)-2,3-dihydrobenzo[d]isothiazole 1,1-dioxide] | ≥ 5 µM | B (3≥B>2) | – | – | – | – | –
25 | [2H]C([2H])(C1CC2(CNC(=O)O2)C1)N1C(=O)c2ccccc2C1Cc1c(Cl)cnn1C (centres unmarked) [Compound 643, 2-((1-((4-chloro-1-methyl-1H-pyrazol-5-yl)methyl)-3-oxoisoindolin-2-yl)methyl-d)-5-oxa-7-azaspiro[3.4]octan-6-one] | 0.5 to 5 µM | B (3≥B>2) | – | – | – | – | –
